In patent US10752621B2, “Oxazolidinone compounds and methods of use thereof as antibacterial agents” (priority 2017, dated 2020):
Values after ≈ are worked out from the molar mass of the structure shown. Read-outs that look alike come from different tables or passages of the source.

Test system: Mycobacterium tuberculosis (Mtb-GFP; H37Rv pMSP12::GFP)
Experiment: microbe, parasite or virus in culture
Type: cell-based
Settings: 168 h
[1] = pH 6.8, read-out: Mtb Cho MITC95
[2] = pH 6.8, read-out: Mtb Glu MITC95

| SMILES | MIC [1] | MIC [2] |
| --- | --- | --- |
| Cn1nccc1-c1ccc(N2C[C@H](CN/C(N)=N/C#N)OC2=O)cc1F [Example 1, (S,E)-2-cyano-1-((3-(3-fluoro-4-(1-methyl-1H-pyrazol-5-yl)phenyl)-2-oxooxazolidin-5-yl)methyl)guanidine] | 0.78 µM (≈ 0.279 µg/mL) | 0.78 µM (≈ 0.279 µg/mL) |
| Cc1nnn(-c2ccc(-c3ccc(N4C[C@H](CN/C(N)=N/C#N)OC4=O)cc3F)cn2)n1 [Example 2, (S,E)-2-cyano-1-((3-(3-fluoro-4-(6-(5-methyl-2H-tetrazol-2-yl)pyridin-3-yl)phenyl)-2-oxooxazolidin-5-yl)methyl)guanidine] | 0.19 µM (≈ 0.0829 µg/mL) | 0.09 µM (≈ 0.0393 µg/mL) |
| N#C/N=C(\N)NC[C@H]1CN(c2ccc(-c3ccc(-n4nccn4)nc3)c(F)c2)C(=O)O1 [Example 3, (S,E)-1-((3-(4-(6-(2H-1,2,3-triazol-2-yl)pyridin-3-yl)-3-fluorophenyl)-2-oxooxazolidin-5-yl)methyl)-2-cyanoguanidine] | 0.19 µM (≈ 0.0801 µg/mL) | 0.19 µM (≈ 0.0801 µg/mL) |
| CS(=O)(=O)c1ccc(-c2ccc(N3C[C@H](CN/C(N)=N/C#N)OC3=O)cc2F)cc1 [Example 4, (S,E)-2-cyano-1-((3-(2-fluoro-4′-(methylsulfonyl)-[1,1′-biphenyl]-4-yl)-2-oxooxazolidin-5-yl)methyl)guanidine] | 0.39 µM (≈ 0.168 µg/mL) | 0.39 µM (≈ 0.168 µg/mL) |
| CS(=O)(=O)c1ccc(-c2ccc(N3C[C@H](CN/C(N)=N/C#N)OC3=O)cc2F)cn1 [Example 5, (S,E)-2-cyano-1-((3-(3-fluoro-4-(6-(methylsulfonyl)pyridin-3-yl)phenyl)-2-oxooxazolidin-5-yl)methyl)guanidine] | 0.39 µM (≈ 0.169 µg/mL) | 0.78 µM (≈ 0.337 µg/mL) |
| C/C(=N\C#N)NC[C@H]1CN(c2ccc(-c3ccnn3C)c(F)c2)C(=O)O1 [Example 6, (S,E)-N′-cyano-N-((3-(3-fluoro-4-(1-methyl-1H-pyrazol-5-yl)phenyl)-2-oxooxazolidin-5-yl)methyl)acetimidamide] | 0.78 µM (≈ 0.278 µg/mL) | 0.78 µM (≈ 0.278 µg/mL) |
| C/C(=N\C#N)NC[C@H]1CN(c2ccc(-c3cccc(S(N)(=O)=O)c3)c(F)c2)C(=O)O1 [Example 7, (S,E)-N′-cyano-N-((3-(2-fluoro-3′-sulfamoyl-[1,1′-biphenyl]-4-yl)-2-oxooxazolidin-5-yl)methyl)acetimidamide] | 1.14 µM (≈ 0.492 µg/mL) | 1.5 µM (≈ 0.647 µg/mL) |
| C/C(=N\C#N)NC[C@H]1CN(c2cnc(N3CCS(=O)(=O)CC3)c(F)c2)C(=O)O1 [Example 8, (S,E)-N′-cyano-N-((3-(6-(1,1-dioxidothiomorpholino)-5-fluoropyridin-3-yl)-2-oxooxazolidin-5-yl)methyl)acetimidamide] | 6.25 µM (≈ 2.57 µg/mL) | 6.25 µM (≈ 2.57 µg/mL) |
| C/C(=N\C#N)NC[C@H]1CN(c2ccc(N3CCOCC3)c(F)c2)C(=O)O1 [Example 9, (S,E)-N′-cyano-N-((3-(3-fluoro-4-morpholinophenyl)-2-oxooxazolidin-5-yl)methyl)acetimidamide] | 3.12 µM (≈ 1.13 µg/mL) | 3.12 µM (≈ 1.13 µg/mL) |
| C/C(=N\C#N)NC[C@H]1CN(c2ccc(-c3ccc(-n4nccn4)nc3)c(F)c2)C(=O)O1 [Example 10, (S,E)-N-((3-(4-(6-(2H-1,2,3-triazol-2-yl)pyridin-3-yl)-3-fluorophenyl)-2-oxooxazolidin-5-yl)methyl)-N′-cyanoacetimidamide] | 0.39 µM (≈ 0.164 µg/mL) | 0.14 µM (≈ 0.0589 µg/mL) |
| C/C(=N\C#N)NC[C@H]1CN(c2cc(F)c(N3CCS(=O)(=O)CC3)c(F)c2)C(=O)O1 [Example 11, (S,E)-N′-cyano-N-((3-(4-(1,1-dioxidothiomorpholino)-3,5-difluorophenyl)-2-oxooxazolidin-5-yl)methyl)acetimidamide] | 3.12 µM (≈ 1.33 µg/mL) | 1.5 µM (≈ 0.641 µg/mL) |
| C/C(=N\C#N)NC[C@H]1CN(c2ccc(-c3ccc(-n4nnc(C)n4)nc3)c(F)c2)C(=O)O1 [Example 12, (S,E)-N′-cyano-N-((3-(3-fluoro-4-(6-(5-methyl-2H-tetrazol-2-yl)pyridin-3-yl)phenyl)-2-oxooxazolidin-5-yl)methyl)acetimidamide] | 0.19 µM (≈ 0.0827 µg/mL) | 0.14 µM (≈ 0.061 µg/mL) |
| C/C(=N\C#N)NC[C@H]1CN(c2ccc(-c3ccc(S(C)(=O)=O)nc3)c(F)c2)C(=O)O1 [Example 13, (S,E)-N′-cyano-N-((3-(3-fluoro-4-(6-(methylsulfonyl)pyridin-3-yl)phenyl)-2-oxooxazolidin-5-yl)methyl)acetimidamide] | 1.5 µM (≈ 0.647 µg/mL) | 0.78 µM (≈ 0.337 µg/mL) |
| C/C(=N\C#N)NC[C@H]1CN(c2ccc(-c3ccc(S(C)(=O)=O)cc3)c(F)c2)C(=O)O1 [Example 14, (S,E)-N′-cyano-N-((3-(2-fluoro-4′-(methylsulfonyl)-[1,1′-biphenyl]-4-yl)-2-oxooxazolidin-5-yl)methyl)acetimidamide] | 0.58 µM (≈ 0.25 µg/mL) | 0.58 µM (≈ 0.25 µg/mL) |
| Cn1nccc1-c1ccc(N2C[C@H](CNC=N)OC2=O)cc1F [Example 15, (S)-N-((3-(3-fluoro-4-(1-methyl-1H-pyrazol-5-yl)phenyl)-2-oxooxazolidin-5-yl)methyl)formimidamide] | 0.78 µM (≈ 0.248 µg/mL) | 0.39 µM (≈ 0.124 µg/mL) |
| CS(=O)(=O)c1ccc(-c2ccc(N3C[C@H](CNC=N)OC3=O)cc2F)cc1 [Example 16, (S)-N-((3-(2-fluoro-4′-(methylsulfonyl)-[1,1′-biphenyl]-4-yl)-2-oxooxazolidin-5-yl)methyl)formimidamide] | 0.39 µM (≈ 0.153 µg/mL) | 0.19 µM (≈ 0.0744 µg/mL) |
| N=CNC[C@H]1CN(c2ccc(-c3ccc(-n4cnnn4)nc3)c(F)c2)C(=O)O1 [Example 17, (S)-N-((3-(4-(6-(1H-tetrazol-1-yl)pyridin-3-yl)-3-fluorophenyl)-2-oxooxazolidin-5-yl)methyl)formimidamide] | 0.24 µM (≈ 0.0918 µg/mL) | 0.12 µM (≈ 0.0459 µg/mL) |
| N=CNC[C@H]1CN(c2cc(F)c(-c3ccc(S(N)(=O)=O)cc3)c(F)c2)C(=O)O1 [Example 18, (S)-N-((3-(2,6-difluoro-4′-sulfamoyl-[1,1′-biphenyl]-4-yl)-2-oxooxazolidin-5-yl)methyl)formimidamide] | 0.39 µM (≈ 0.16 µg/mL) | 0.29 µM (≈ 0.119 µg/mL) |
| N=CNC[C@H]1CN(c2cc(F)c(-c3cccc(S(N)(=O)=O)c3)c(F)c2)C(=O)O1 [Example 19, (S)-N-((3-(2,6-difluoro-3′-sulfamoyl-[1,1′-biphenyl]-4-yl)-2-oxooxazolidin-5-yl)methyl)formimidamide] | 0.68 µM (≈ 0.279 µg/mL) | 0.39 µM (≈ 0.16 µg/mL) |
| N=CNC[C@H]1CN(c2cc(F)c(N3CCOCC3)c(F)c2)C(=O)O1 [Example 20, (S)-N-((3-(3,5-difluoro-4-morpholinophenyl)-2-oxooxazolidin-5-yl)methyl)formimidamide] | 0.58 µM (≈ 0.197 µg/mL) | 0.14 µM (≈ 0.0476 µg/mL) |
| CC(=N)NC[C@H]1CN(c2ccc(-c3ccnn3C)c(F)c2)C(=O)O1 [Example 21, (S)-N-((3-(3-fluoro-4-(1-methyl-1H-pyrazol-5-yl)phenyl)-2-oxooxazolidin-5-yl)methyl)acetimidamide] | 25 µM (≈ 8.28 µg/mL) | 25 µM (≈ 8.28 µg/mL) |
| CC(=N)NC[C@H]1CN(c2cc(F)c(-c3cccc(S(N)(=O)=O)c3)c(F)c2)C(=O)O1 [Example 22, (S)-N-((3-(2,6-difluoro-3′-sulfamoyl-[1,1′-biphenyl]-4-yl)-2-oxooxazolidin-5-yl)methyl)acetimidamide] | 6.25 µM (≈ 2.65 µg/mL) | 3.12 µM (≈ 1.32 µg/mL) |
| CC(=N)NC[C@H]1CN(c2ccc(-c3ccc(-n4cnnn4)nc3)c(F)c2)C(=O)O1 [Example 23, (S)-N-((3-(4-(6-(1H-tetrazol-1-yl)pyridin-3-yl)-3-fluorophenyl)-2-oxooxazolidin-5-yl)methyl)acetimidamide] | 12.5 µM (≈ 4.95 µg/mL) | 6.25 µM (≈ 2.48 µg/mL) |
| CC(=N)NC[C@H]1CN(c2ccc(-c3cccc(S(N)(=O)=O)c3)c(F)c2)C(=O)O1 [Example 24, (S)-N-((3-(2-fluoro-3′-sulfamoyl-[1,1′-biphenyl]-4-yl)-2-oxooxazolidin-5-yl)methyl)acetimidamide] | 6.25 µM (≈ 2.54 µg/mL) | 6.25 µM (≈ 2.54 µg/mL) |
| CC(=O)NC[C@H]1CN(c2ccc(N3CCOCC3)c(F)c2)C(=O)O1 [Linezolid, reference compound] | 3.14 µM (≈ 1.06 µg/mL) | 4.58 µM (≈ 1.55 µg/mL) |
